Experimental data from publication PMC3238500 (Archives of biochemistry and biophysics, 2011).
Read-outs that look alike come from different tables or passages of the source.

What was measured:
[1] = molecular target: T1, pyruvate carboxylase (RePC) (Rhizobium etli, UniProt Q2K340); assay type: biochemical
[2] = molecular target: T1, pyruvate carboxylase (RePC); assay type: biochemical; remark: listed apart in the source
[3] = molecular target: T1, pyruvate carboxylase (RePC); assay type: binding
[4] = molecular target: T1, pyruvate carboxylase (RePC); assay: Stopped-flow fluorescence kinetics of MgTNP-ATP binding to pyruvate carboxylase; conditions: for kobs1 (fast phase of binding) / kobs2 (intermediate phase of binding): 0.5 μM enzyme, double exponential fit; for k-2 / K2 (equilibrium constant between two conformational states, k-2/k2) / k2: intermediate phase

`Nc1ncnc2c1ncn2[C@@H]1O[C@H](COP(=O)(O)OP(=O)([O-])OP(=O)([O-])O)[C@@H](O)[C@H]1O.[Mg+2]` [MgATP] was tested, and the Km ([1]; MgATP varied, absence of acetyl CoA, fit to equation (iii), Fig. 6a) was 150 ± 20 µM, the Ki ([1]; read-out: Ki (substrate inhibition), MgATP varied, absence of acetyl CoA, fit to equation (iii), Fig. 6a) was 8.9 ± 1.2 mM and the Hill coefficient ([2]; activation by MgATP, absence of acetyl CoA, Fig. 6b) was 3.1 ± 0.5. The increase in activity ([2]; between 2 mM and saturating MgATP, absence of acetyl CoA) was “approximately 16 fold”, the “apparent Ka (activation of ATP cleavage)” value ([2]; super-catalytic MgATP, absence of acetyl CoA, fit to equation (iv), Fig. 6b) was 5.0 ± 0.4 mM and the “further decrease in fluorescence” value ([3]; addition of 2.5 mM MgATP to 5 μM MgTNP-ATP + 10 μM enzyme + 0.25 mM acetyl CoA) was “approximately 13%”. The “effect on kinetics of MgTNP-ATP binding” value ([4]; 1 mM MgATP in both syringes, 10 μM MgTNP-ATP) was “essentially identical”.

In the case of `Nc1ncnc2c1ncn2[C@@H]1O[C@H](COP(=O)(O)OP(=O)(O)OP(=O)(O)O)[C@H]2OC3(O[C@H]21)C([N+](=O)[O-])=CC(=[N+]([O-])[O-])C=C3[N+](=O)[O-]` (stereo partly drawn) [MgTNP-ATP, 2′,3′-O-(2,4,6-trinitrophenyl) adenosine 5′-triphosphate], the “kcat2 for the activation by MgTNP-ATP” value ([1]; absence of acetyl CoA, fit to equation (i), Fig. 4c) is reported as 1.9 ± 0.1 s⁻¹, the “nt (Hill coefficient)” value ([1]; activation by MgTNP-ATP in the absence of acetyl CoA, fit to equation (i), Fig. 4c) is reported as 2.3 ± 0.6 and the “nt (Hill coefficient)” value ([1]; activation by MgTNP-ATP, global fit to equation (ii), Fig. 4b) is reported as 2.5 ± 0.4. For the same compound, the “substrate in the overall pyruvate carboxylation reaction” value ([1]; concentrations up to 0.25 mM) was “not found to be a substrate”, the “kcat2 for the reaction activated by MgTNP-ATP” value ([1]; global fit to equation (ii), Fig. 4b) was 2.0 ± 0.5 s⁻¹ and the “half time of the slowest phase of the binding kinetics” value [4] was “about 20 sec”. For the same compound, the “kobs1 (fast phase of binding)” value ([4]; 10 μM MgTNP-ATP, Fig. 8a) was 234 ± 26 s⁻¹, the “kobs2 (intermediate phase of binding)” value ([4]; 10 μM MgTNP-ATP, Fig. 8a) was 11 ± 1 s⁻¹ and the “k (slow phase of binding)” value ([4]; 20 μM MgTNP-ATP, single exponential fit, Fig. 8c) was 0.035 ± 0.001 s⁻¹. For the same compound, the “kobs1 (fast phase of binding)” value ([4]; 35 μM MgTNP-ATP, Fig. 8b) was 475 ± 90 s⁻¹, the “kobs2 (intermediate phase of binding)” value ([4]; 35 μM MgTNP-ATP, Fig. 8b) was 19 ± 2 s⁻¹ and the “observed first order rate constant, slow phase of binding” value ([4]; average value across all concentrations of MgTNP-ATP) was 0.035 ± 0.008 s⁻¹. The k1 ([4]; fast phase, fit to eq (vi)) was 0.20 ± 0.01 μM^-2s^-1, the “k2 (intermediate phase) as percentage of k1 (fast phase)” value ([4]; fit to equation (ix)) was 5.9% and the “k-2 (intermediate phase) as percentage of k-1 (fast phase)” value ([4]; fit to equation (ix)) was 6.6%. The k-2 ([4]; fit to eq (ix)) was 10.6 ± 0.2 s⁻¹, the “K2 (equilibrium constant between two conformational states, k-2/k2)” value ([4]; fit to eq (vii)) was 0.02 ± 0.02 and the k2 ([4]; fit to eq (vii)) was 31 ± 1 s⁻¹. For the same compound, the k-2 ([4]; fit to eq (vii)) was 0.6 ± 0.6 s⁻¹, the “K2 (equilibrium constant between two conformational states, k-2/k2)” value ([4]; fit to eq (viii)) was 0.47 ± 0.05 and the k2 ([4]; fit to eq (viii)) was 22.6 ± 0.7 s⁻¹. The k-2 ([4]; fit to eq (viii)) was 10.5 ± 0.2 s⁻¹, the k-2 ([4]; fit to eq (x)) was 12.6 ± 0.2 s⁻¹ and the k2 ([4]; fit to eq (xi)) was 0.013 ± 0.001μM^-2s^-1. For the same compound, the k-2 ([4]; fit to eq (xi)) was 12.7 ± 0.2 s⁻¹, the k2 ([4]; fit to eq (xii)) was 0.016 ± 0.001 μM^-2 s^-1 and the k-2 ([4]; fit to eq (xii)) was 13.5 ± 0.3 s⁻¹.

In the case of `CC(=O)SCCNC(=O)CCNC(=O)[C@H](O)C(C)(C)COP(=O)(O)OP(=O)(O)OC[C@H]1O[C@@H](n2cnc3c(N)ncnc32)[C@H](O)[C@@H]1OP(=O)(O)O` [acetyl CoA], the “n (Hill coefficient)” value ([1]; activation by acetyl CoA, fit to equation (i), Fig. 4a) is reported as 2.6 ± 0.2, the “Ka (activation constant)” value ([1]; activation by acetyl CoA, fit to equation (i), Fig. 4a, 30°C, pH 7.8) is reported as 6.9 ± 0.2 µM and the kcat2 ([1]; saturating acetyl CoA, fit to equation (i), Fig. 4a) is reported as 20.2 ± 0.1 s⁻¹. The “increase in the turnover number for ATP cleavage” value ([2]; induced by acetyl CoA when MgATP is present up to 1 mM (data not shown)) was 7 fold and the “decrease in maximum fluorescence intensity” value ([3]; addition of 0.25 mM acetyl CoA to 5 μM MgTNP-ATP + 10 μM enzyme) was “approximately 32%”.
